According to ChEMBL document CHEMBL1150976, “The selectivity of protein kinase inhibitors: a further update” (Biochem J, 2007):

How the values were obtained:
[1] = target: Myosin light chain kinase, smooth muscle (Homo sapiens, UniProt Q15746); test: Percentage SmMLCK activity remaining in the presence of 0.1uM inhibitor
[2] = target: Dual specificity tyrosine-phosphorylation-regulated kinase 1A (Homo sapiens) (UniProt Q13627); test: Percentage DYRK1A activity remaining in the presence of 0.1uM inhibitor
[3] = target: MAP kinase-interacting serine/threonine-protein kinase 1 (Homo sapiens) (UniProt Q9BUB5); test: Percentage MNK1 activity remaining in the presence of 0.1uM inhibitor
[4] = target: T1, MAP kinase-activated protein kinase 5 (Homo sapiens) (UniProt Q8IW41); test: Percentage PRAK activity remaining in the presence of 0.1uM inhibitor
T1 sequence (whole entry): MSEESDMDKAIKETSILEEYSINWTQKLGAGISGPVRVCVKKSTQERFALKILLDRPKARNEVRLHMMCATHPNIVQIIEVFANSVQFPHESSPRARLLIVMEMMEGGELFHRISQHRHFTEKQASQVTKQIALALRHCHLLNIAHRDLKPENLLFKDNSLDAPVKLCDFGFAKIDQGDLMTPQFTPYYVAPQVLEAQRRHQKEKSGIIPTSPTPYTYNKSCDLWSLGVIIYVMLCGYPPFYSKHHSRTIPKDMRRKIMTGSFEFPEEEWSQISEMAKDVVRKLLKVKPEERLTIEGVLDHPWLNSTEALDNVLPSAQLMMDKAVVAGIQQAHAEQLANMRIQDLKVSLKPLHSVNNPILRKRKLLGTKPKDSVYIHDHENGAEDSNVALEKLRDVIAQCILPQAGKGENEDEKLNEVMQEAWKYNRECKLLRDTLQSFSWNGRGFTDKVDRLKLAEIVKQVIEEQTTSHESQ

[5] = target: Mitogen-activated protein kinase 8 (Homo sapiens, UniProt P45983); test: Percentage JNK1 activity remaining in the presence of 0.1uM inhibitor
[6] = target: T2, Inhibitor of nuclear factor kappa-B kinase subunit beta (Homo sapiens) (UniProt O14920); test: Percentage IKK-beta activity remaining in the presence of 0.1uM inhibitor
T2 sequence (whole entry): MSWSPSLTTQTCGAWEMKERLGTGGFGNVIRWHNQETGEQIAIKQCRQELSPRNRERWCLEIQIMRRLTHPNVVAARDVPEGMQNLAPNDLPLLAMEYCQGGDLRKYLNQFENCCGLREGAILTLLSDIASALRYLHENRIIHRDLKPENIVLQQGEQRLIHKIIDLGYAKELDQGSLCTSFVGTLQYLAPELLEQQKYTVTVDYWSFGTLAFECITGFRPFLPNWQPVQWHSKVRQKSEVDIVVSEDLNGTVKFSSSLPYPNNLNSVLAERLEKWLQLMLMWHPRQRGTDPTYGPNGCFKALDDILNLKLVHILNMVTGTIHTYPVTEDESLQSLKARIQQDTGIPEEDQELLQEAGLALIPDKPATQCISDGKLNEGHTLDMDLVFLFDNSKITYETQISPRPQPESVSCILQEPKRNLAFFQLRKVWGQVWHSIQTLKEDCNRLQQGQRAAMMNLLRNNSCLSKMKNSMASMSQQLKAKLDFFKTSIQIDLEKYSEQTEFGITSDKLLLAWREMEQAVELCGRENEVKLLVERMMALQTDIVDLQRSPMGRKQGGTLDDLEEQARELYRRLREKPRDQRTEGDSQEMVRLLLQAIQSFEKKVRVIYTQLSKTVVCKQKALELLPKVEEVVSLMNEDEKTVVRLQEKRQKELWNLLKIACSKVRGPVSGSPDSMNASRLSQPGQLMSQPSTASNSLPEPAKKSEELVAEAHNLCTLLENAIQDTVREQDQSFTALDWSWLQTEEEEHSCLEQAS

[7] = target: Casein kinase II (Homo sapiens) (UniProt P67870+P68400+P19784); test: Percentage CK2 activity remaining in the presence of 0.1uM inhibitor; type: protein-complex assay
[8] = target: MAP/microtubule affinity-regulating kinase 3 (Homo sapiens) (UniProt P27448); test: Percentage MARK3 activity remaining in the presence of 0.1uM inhibitor
[9] = target: T3, Dual specificity tyrosine-phosphorylation-regulated kinase 3 (Homo sapiens) (UniProt O43781); test: Percentage DYRK3 activity remaining in the presence of 0.1uM inhibitor
T3 sequence (whole entry): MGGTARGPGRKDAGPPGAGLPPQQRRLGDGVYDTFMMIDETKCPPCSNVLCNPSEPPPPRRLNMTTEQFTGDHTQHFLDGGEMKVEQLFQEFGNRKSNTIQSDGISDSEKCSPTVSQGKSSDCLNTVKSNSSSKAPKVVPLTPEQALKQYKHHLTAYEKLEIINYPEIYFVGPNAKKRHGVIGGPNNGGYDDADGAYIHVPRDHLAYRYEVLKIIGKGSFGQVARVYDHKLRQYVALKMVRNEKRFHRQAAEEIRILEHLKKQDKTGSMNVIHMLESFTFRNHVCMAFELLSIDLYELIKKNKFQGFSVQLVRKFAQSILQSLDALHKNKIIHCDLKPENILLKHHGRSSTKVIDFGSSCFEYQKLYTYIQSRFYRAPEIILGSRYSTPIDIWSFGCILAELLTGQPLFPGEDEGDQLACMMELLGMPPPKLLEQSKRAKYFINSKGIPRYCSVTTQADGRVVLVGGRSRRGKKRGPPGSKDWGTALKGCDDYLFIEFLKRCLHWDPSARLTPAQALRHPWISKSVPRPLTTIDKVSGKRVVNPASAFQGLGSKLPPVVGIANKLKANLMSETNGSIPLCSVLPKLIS

[10] = target: Serine/threonine-protein kinase pim-2 (Homo sapiens, UniProt Q9P1W9); test: Percentage PIM2 activity remaining in the presence of 0.1uM inhibitor
[11] = target: Serine/threonine-protein kinase N2 (Homo sapiens) (UniProt Q16513); test: Percentage PRK2 activity remaining in the presence of 0.1uM inhibitor
[12] = target: Serine/threonine-protein kinase Chk2 (Homo sapiens) (UniProt O96017); test: Percentage CHK2 activity remaining in the presence of 0.1uM inhibitor
[13] = target: Maternal embryonic leucine zipper kinase (Homo sapiens) (UniProt Q14680); test: Percentage MELK activity remaining in the presence of 0.1uM inhibitor
[14] = target: Mitogen-activated protein kinase 9 (Homo sapiens, UniProt P45984); test: Percentage JNK2 activity remaining in the presence of 0.1uM inhibitor

Serine/threonine-protein kinase pim-2, sequence (Q9P1W9 whole entry, looked up): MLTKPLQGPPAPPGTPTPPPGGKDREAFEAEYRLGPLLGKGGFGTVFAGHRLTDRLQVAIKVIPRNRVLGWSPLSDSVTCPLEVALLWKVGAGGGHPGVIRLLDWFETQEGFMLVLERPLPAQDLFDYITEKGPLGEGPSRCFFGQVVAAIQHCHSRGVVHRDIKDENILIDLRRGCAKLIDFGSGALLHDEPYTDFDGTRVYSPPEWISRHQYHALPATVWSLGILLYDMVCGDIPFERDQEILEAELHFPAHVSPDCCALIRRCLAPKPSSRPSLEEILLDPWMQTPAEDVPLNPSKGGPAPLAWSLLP
MAP/microtubule affinity-regulating kinase 3 (Homo sapiens), sequence (P27448 whole entry, looked up): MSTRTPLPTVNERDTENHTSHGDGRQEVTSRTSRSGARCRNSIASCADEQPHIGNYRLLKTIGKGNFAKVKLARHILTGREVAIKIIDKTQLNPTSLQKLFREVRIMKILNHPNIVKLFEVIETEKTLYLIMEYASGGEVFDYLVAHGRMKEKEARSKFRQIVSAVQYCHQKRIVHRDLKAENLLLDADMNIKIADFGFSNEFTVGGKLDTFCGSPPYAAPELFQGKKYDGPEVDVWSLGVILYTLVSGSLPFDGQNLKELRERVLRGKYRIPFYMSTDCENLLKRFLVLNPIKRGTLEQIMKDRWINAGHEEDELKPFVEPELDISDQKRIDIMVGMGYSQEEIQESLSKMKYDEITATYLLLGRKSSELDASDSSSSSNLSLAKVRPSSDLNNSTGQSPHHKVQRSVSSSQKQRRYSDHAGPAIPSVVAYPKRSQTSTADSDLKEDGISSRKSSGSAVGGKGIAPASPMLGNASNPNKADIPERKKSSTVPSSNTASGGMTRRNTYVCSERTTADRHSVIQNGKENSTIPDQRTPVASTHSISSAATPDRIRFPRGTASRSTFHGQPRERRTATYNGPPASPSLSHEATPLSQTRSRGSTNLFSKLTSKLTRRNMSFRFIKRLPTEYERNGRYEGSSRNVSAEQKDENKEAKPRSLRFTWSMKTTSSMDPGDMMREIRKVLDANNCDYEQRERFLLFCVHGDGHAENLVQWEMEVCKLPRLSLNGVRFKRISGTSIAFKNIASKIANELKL
Maternal embryonic leucine zipper kinase (Homo sapiens), sequence (Q14680 whole entry, looked up): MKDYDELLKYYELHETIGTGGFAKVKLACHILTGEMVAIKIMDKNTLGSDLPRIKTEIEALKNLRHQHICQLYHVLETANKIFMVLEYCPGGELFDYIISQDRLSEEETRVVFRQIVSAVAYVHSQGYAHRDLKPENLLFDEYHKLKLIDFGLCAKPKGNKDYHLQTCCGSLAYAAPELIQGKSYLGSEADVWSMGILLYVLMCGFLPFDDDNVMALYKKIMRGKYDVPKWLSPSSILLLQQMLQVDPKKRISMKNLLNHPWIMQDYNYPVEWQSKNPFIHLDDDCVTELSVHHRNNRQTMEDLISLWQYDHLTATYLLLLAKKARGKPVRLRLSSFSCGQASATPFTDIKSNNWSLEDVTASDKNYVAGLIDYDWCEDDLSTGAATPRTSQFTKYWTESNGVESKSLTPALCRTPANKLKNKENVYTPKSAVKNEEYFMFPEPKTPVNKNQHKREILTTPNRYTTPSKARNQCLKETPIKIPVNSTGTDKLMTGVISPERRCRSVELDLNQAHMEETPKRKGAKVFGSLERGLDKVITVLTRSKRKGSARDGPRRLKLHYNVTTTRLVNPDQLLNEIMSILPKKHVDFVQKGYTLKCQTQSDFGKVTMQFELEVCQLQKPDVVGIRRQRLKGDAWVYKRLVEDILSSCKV
Serine/threonine-protein kinase N2 (Homo sapiens), sequence (Q16513 whole entry, looked up): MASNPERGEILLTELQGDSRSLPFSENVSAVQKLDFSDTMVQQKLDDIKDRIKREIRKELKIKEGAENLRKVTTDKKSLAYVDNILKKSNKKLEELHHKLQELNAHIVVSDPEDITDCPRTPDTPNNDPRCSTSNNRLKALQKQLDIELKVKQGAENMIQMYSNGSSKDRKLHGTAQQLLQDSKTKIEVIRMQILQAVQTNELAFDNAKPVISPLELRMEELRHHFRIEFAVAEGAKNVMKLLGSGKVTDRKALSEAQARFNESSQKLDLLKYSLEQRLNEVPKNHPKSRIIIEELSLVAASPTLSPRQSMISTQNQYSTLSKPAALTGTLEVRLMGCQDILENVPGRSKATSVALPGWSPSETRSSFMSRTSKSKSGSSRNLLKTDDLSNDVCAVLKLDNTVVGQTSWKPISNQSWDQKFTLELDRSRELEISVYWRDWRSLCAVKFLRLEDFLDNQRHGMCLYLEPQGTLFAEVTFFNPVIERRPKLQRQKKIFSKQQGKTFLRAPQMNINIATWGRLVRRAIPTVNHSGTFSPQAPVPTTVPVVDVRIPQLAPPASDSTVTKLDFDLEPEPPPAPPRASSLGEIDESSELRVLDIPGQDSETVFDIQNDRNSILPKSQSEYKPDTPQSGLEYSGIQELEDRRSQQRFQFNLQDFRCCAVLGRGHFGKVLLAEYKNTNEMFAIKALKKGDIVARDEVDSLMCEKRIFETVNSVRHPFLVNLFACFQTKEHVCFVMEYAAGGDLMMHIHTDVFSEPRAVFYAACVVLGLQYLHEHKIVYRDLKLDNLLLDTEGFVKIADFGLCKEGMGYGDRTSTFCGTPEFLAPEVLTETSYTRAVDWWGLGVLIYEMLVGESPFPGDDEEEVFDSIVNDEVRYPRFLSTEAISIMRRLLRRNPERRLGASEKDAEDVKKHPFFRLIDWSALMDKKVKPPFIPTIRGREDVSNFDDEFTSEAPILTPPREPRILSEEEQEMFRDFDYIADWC
Mitogen-activated protein kinase 8, sequence (P45983 whole entry): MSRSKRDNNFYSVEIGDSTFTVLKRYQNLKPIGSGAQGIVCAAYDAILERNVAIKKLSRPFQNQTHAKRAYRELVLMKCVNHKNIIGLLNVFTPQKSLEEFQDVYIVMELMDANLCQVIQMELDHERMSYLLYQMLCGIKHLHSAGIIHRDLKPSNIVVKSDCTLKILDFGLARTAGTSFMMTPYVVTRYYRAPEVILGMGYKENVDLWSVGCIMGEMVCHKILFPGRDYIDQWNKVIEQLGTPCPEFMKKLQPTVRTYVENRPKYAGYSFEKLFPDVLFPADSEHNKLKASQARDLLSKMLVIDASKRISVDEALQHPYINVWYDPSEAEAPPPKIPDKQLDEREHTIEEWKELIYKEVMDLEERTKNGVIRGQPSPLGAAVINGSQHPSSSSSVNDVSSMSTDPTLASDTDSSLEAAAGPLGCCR
Myosin light chain kinase, smooth muscle, sequence (Q15746 whole entry): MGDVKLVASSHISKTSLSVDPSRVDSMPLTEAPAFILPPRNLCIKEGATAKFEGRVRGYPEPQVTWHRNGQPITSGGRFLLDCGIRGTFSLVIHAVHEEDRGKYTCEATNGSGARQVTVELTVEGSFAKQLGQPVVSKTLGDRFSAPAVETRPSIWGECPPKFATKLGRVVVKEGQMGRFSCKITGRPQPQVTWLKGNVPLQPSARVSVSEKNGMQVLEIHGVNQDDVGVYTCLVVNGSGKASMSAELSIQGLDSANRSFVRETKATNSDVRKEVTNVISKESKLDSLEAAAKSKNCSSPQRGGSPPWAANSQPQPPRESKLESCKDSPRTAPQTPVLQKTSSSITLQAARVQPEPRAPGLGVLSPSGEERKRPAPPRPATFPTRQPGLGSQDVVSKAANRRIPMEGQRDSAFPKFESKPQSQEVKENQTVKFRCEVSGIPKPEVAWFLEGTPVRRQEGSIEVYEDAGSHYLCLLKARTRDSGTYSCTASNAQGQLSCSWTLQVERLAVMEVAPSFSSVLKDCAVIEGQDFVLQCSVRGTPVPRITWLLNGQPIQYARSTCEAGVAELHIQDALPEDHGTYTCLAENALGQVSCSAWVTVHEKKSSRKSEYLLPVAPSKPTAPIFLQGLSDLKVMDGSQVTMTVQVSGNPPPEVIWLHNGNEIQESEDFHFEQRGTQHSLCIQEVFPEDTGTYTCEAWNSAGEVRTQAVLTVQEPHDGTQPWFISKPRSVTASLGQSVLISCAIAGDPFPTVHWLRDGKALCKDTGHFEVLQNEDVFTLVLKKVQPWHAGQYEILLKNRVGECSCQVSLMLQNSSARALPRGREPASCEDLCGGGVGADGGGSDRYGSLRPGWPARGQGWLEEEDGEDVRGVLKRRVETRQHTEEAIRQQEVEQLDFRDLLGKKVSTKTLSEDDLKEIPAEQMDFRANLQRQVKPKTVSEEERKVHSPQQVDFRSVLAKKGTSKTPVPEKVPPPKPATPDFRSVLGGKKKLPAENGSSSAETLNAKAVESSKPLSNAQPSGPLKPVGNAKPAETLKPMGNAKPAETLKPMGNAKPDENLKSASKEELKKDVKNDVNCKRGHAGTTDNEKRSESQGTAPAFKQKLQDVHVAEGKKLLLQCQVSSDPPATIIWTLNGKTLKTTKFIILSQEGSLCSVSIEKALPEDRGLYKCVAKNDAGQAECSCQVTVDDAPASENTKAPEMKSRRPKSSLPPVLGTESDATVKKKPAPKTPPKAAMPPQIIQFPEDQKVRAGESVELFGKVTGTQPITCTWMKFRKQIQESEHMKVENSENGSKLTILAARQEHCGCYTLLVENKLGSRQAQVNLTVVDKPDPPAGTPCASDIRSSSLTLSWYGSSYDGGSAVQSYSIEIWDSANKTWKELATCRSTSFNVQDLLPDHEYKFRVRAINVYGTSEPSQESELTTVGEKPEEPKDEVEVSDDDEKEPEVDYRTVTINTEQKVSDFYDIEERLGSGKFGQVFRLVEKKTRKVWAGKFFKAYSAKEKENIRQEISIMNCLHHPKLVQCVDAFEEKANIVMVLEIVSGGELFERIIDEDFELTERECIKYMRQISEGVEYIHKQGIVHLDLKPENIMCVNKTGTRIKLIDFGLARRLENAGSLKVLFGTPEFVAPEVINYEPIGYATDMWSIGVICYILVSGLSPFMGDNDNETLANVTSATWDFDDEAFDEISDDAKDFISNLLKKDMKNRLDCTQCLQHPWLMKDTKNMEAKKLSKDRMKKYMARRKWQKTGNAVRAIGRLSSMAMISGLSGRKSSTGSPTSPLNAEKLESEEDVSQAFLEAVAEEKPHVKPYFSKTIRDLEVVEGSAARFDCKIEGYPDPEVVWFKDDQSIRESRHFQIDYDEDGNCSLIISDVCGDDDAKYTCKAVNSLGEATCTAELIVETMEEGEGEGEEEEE

Structure (SMILES)	Activity [1] [%]	Activity [2] [%]	Activity [4] [%]	Activity [5] [%]	Activity [6] [%]	Activity [7] [%]	Activity [9] [%]	Activity [10] [%]	Activity ([11]; filed as antagonist) [%]	Activity ([13]; filed as antagonist) [%]	Activity [14] [%]	Activity ([2]; filed as antagonist) [%]	Activity [3] [%]	Activity [8] [%]	Activity ([10]; filed as antagonist) [%]	Activity [12] [%]	Activity [13] [%]	also measured
O=C(NCCCNc1nc(Nc2cccc(NC(=O)N3CCCC3)c2)ncc1I)c1cccs1	95	83	83	85	93	93	65	92	43	32	70	–	–	–	–	–	–	Activity ([3]; filed as antagonist): 37%; Activity ([8]; filed as antagonist): 3%; Activity ([12]; filed as antagonist): 46%
Cn1cc(C2=C(c3cn(CCCSC(=N)N)c4ccccc34)C(=O)NC2=O)c2ccccc21	63	–	80	93	91	99	55	–	8	–	92	31	95	77	30	99	61	–
CC(C)CCN1c2nc(Nc3cc(F)c(O)c(F)c3)ncc2N(C)C(=O)C1C (stereo unspecified)	107	96	89	88	106	97	91	100	–	40	115	–	87	79	–	96	–	Activity [11]: 97%
CC(C)[C@H](CO)Nc1nc(Nc2cccc(Cl)c2)c2ncn(C(C)C)c2n1 [PURVALANOLA]	86	88	91	100	89	99	89	96	–	–	96	–	92	89	–	94	72	Activity [11]: 81%
CN(C)C[C@@H]1CCn2cc(c3ccccc32)C2=C(C(=O)NC2=O)c2cn(c3ccccc23)CCO1	66	74	82	87	86	89	64	–	38	–	99	–	94	73	41	92	–	–
Cc1n[nH]c2ccc(-c3cncc(OC[C@@H](N)Cc4c[nH]c5ccccc45)c3)cc12	–	–	107	90	89	90	–	–	2	–	78	7	109	83	15	95	63	Activity ([1]; filed as antagonist): 27%; Activity ([9]; filed as antagonist): 8%
Cn1c2ccccc2c2c3c(c4c5ccccc5n(CCC#N)c4c21)CNC3=O	–	–	76	69	76	88	–	–	5	15	68	30	67	–	–	–	–	Activity ([1]; filed as antagonist): 40%; Activity ([8]; filed as antagonist): 12%; Activity ([9]; filed as antagonist): 28%; Activity ([12]; filed as antagonist): 43%
